Several values for one entry are separate records, joined by “and”; a condition that tells them apart may be missing. Identical values can stand only once.
Columns and labels:
Format in all cases: biochemical
TMPRSS2 = TMPRSS2 (Homo sapiens, UniProt O15393); test: PS-SCL / HyCoSuL substrate specificity screening, TMPRSS2; settings: for P2 Position Substrate Activity for TMPRSS2 (percent substrate cleavage/proteolysis): residue fixed at P2 position of substrate library; for P3 Position Various Amino Acids Substrate Activity, TMPRSS2 (percent substrate cleavage/proteolysis) / P3 Position Substrate Activity for TMPRSS2 (percent substrate cleavage/proteolysis): residue fixed at P3 position of substrate library
Chain of TMPRSS2 (O15393 whole entry): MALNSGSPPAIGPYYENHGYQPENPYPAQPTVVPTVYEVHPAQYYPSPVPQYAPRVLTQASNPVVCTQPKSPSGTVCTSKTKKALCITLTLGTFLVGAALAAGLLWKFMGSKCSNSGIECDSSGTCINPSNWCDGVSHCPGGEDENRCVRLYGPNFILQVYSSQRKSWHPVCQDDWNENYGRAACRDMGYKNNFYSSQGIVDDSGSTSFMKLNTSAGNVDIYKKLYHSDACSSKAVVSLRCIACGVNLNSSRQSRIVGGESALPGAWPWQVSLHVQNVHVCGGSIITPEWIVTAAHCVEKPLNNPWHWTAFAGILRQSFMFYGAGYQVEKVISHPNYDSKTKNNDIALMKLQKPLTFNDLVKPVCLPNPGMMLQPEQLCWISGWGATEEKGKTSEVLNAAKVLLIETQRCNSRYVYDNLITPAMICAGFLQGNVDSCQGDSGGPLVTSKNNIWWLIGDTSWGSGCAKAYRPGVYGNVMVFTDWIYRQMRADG

matriptase = molecular target: T1, matriptase (Homo sapiens, UniProt Q9Y5Y6); test: HyCoSuL P4-P2 substrate specificity screening, matriptase; settings: for P2 Position Substrate Activity for matriptase (percent substrate cleavage/proteolysis): residue fixed at P2 position; for P3 Position Various Amino Acids Substrate Activity, matriptase (percent substrate cleavage/proteolysis): residue fixed at P3 position of substrate library; for P4 Position Various Amino Acids Substrate Activity, matriptase (percent substrate proteolysis/cleavage): residue fixed at P4 position of substrate library; for P3 Position Substrate Activity for matriptase (percent substrate cleavage/proteolysis): residue fixed at P3 position
T1 sequence (Q9Y5Y6 1-855): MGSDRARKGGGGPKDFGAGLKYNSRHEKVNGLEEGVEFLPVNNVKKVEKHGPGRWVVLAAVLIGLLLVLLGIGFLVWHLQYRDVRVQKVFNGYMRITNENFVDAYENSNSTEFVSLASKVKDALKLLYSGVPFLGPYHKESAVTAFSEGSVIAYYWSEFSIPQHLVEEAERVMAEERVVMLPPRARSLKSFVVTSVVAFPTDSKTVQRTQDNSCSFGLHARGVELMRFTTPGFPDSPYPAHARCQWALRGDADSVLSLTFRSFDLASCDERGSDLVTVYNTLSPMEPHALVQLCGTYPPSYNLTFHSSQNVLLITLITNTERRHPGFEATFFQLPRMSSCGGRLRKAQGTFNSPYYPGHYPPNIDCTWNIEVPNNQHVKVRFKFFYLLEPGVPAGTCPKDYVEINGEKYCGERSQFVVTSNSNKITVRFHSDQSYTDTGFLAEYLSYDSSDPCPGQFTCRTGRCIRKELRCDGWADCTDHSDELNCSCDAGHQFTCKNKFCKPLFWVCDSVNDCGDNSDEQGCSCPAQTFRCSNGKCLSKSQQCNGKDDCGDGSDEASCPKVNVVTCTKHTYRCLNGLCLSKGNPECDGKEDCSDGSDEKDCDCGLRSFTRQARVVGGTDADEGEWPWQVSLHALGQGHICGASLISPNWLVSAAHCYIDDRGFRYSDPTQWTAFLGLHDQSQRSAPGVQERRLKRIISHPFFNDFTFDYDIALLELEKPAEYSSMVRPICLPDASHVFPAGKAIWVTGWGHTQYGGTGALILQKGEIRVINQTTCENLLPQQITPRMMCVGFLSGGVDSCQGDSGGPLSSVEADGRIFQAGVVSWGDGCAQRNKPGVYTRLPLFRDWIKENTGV

hepsin = molecular target: T2, hepsin (Homo sapiens, UniProt P05981); test: HyCoSuL P4-P2 substrate specificity screening, hepsin; settings: for P2 Position Substrate Activity for hepsin (percent substrate cleavage/proteolysis): residue fixed at P2 position; for P3 Position Various Amino Acids Substrate Activity, hepsin (percent substrate cleavage/proteolysis): residue fixed at P3 position of substrate library; for P4 Position Various Amino Acids Substrate Activity, hepsin (percent substrate proteolysis/cleavage): residue fixed at P4 position of substrate library; for P3 Position Substrate Activity for hepsin (percent substrate cleavage/proteolysis): residue fixed at P3 position
T2 construct: purchased R&D Systems 4776-SE-010
T2 sequence (P05981 163-417 limits assumed): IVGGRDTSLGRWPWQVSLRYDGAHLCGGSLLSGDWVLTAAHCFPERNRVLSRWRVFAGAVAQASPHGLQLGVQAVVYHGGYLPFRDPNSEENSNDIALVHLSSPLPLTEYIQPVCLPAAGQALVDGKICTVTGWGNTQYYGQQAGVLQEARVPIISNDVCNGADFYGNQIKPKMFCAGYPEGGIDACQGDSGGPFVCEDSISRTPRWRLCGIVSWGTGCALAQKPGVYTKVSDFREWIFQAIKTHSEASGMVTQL
T2 sequence (P05981 1-162 partner limits assumed): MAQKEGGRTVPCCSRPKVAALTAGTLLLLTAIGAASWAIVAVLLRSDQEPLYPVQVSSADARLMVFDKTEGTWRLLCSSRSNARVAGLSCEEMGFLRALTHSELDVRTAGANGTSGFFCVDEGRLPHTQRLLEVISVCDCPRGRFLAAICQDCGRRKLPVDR

HGFA = molecular target: T3, HGFA (Homo sapiens, UniProt Q04756); test: HyCoSuL P4-P2 substrate specificity screening, HGFA; settings: for P2 Position Substrate Activity for HGFA (percent substrate cleavage/proteolysis): residue fixed at P2 position; for P3 Position Various Amino Acids Substrate Activity, HGFA (percent substrate cleavage/proteolysis): residue fixed at P3 position of substrate library; for P4 Position Various Amino Acids Substrate Activity, HGFA (percent substrate proteolysis/cleavage): residue fixed at P4 position of substrate library; for P3 Position Substrate Activity for HGFA (percent substrate cleavage/proteolysis): residue fixed at P3 position
T3 sequence (Q04756 373-655): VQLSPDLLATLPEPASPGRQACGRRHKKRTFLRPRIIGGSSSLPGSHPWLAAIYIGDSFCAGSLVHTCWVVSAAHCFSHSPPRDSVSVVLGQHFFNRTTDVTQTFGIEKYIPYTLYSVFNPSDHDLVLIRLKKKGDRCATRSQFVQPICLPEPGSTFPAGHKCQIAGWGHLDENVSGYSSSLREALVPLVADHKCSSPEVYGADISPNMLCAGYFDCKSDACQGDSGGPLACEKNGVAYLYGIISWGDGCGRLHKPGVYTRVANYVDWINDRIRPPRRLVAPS

[1] = best recognized amino acid set to 100%
[2] = residue fixed at P4 position of substrate library
[3] = P1-Arg HyCoSuL, 100 μM, best recognized amino acid set to 100%
[4] = residue fixed at P4 position, P1-Arg HyCoSuL, 100 μM, best recognized amino acid set to 100%

Substance	P2 Position Substrate Activity for TMPRSS2 (percent substrate cleavage/proteolysis) (TMPRSS2; [1])	P3 Position Various Amino Acids Substrate Activity, TMPRSS2 (percent substrate cleavage/proteolysis) (TMPRSS2)	P4 Position Various Amino Acids Substrate Activity, TMPRSS2 (percent substrate proteolysis/cleavage) (TMPRSS2; [2])	P2 Position Substrate Activity for matriptase (percent substrate cleavage/proteolysis) (matriptase; [3])	P3 Position Various Amino Acids Substrate Activity, matriptase (percent substrate cleavage/proteolysis) (matriptase)	P4 Position Various Amino Acids Substrate Activity, matriptase (percent substrate proteolysis/cleavage) (matriptase)	P2 Position Substrate Activity for hepsin (percent substrate cleavage/proteolysis) (hepsin; [3])	P3 Position Various Amino Acids Substrate Activity, hepsin (percent substrate cleavage/proteolysis) (hepsin)	P4 Position Various Amino Acids Substrate Activity, hepsin (percent substrate proteolysis/cleavage) (hepsin)	P2 Position Substrate Activity for HGFA (percent substrate cleavage/proteolysis) (HGFA; [3])	P3 Position Various Amino Acids Substrate Activity, HGFA (percent substrate cleavage/proteolysis) (HGFA)	P4 Position Various Amino Acids Substrate Activity, HGFA (percent substrate proteolysis/cleavage) (HGFA)	P3 Position Substrate Activity for TMPRSS2 (percent substrate cleavage/proteolysis) (TMPRSS2; [1])	P3 Position Substrate Activity for matriptase (percent substrate cleavage/proteolysis) (matriptase; [3])	P3 Position Substrate Activity for hepsin (percent substrate cleavage/proteolysis) (hepsin; [3])	P3 Position Substrate Activity for HGFA (percent substrate cleavage/proteolysis) (HGFA; [3])	P4 Position Substrate Activity for TMPRSS2 (percent substrate cleavage/proteolysis) (TMPRSS2; residue fixed at P4 position of substrate library, best recognized amino acid set to 100%)	P4 Position Substrate Activity for matriptase (percent substrate cleavage/proteolysis) (matriptase; [4])	P4 Position Substrate Activity for hepsin (percent substrate cleavage/proteolysis) (hepsin; [4])	P4 Position Substrate Activity for HGFA (percent substrate cleavage/proteolysis) (HGFA; [4])
D-Thr	0.00%	0.00%	22.57%	0%	2%	9%	0.00%	36.69%	25.74%	0.00%	6.45%	8.61%	–	–	–	–	–	–	–	–
D-Trp	0.00%	–	22.02%	0%	5%	5%	0.00%	–	1.48%	0.00%	–	7.65%	31.94%	76.43%	24.90%	87.59%	–	–	–	–
D-Tyr	0.00%	4.49%	33.78%	0%	6%	7%	0.00%	29.94%	12.66%	0.00%	17.32%	10.09%	–	–	–	–	–	–	–	–
D-Val	0.00%	0.00%	17.70%	0%	1%	7%	0.00%	27.04%	22.58%	0.00%	5.76%	8.25%	–	–	–	–	–	–	–	–
L-Arg	5.65%	–	–	0%	70%	100%	57.23%	–	–	2.08%	–	–	27.44%	62.39% and 70.35%	70.75%	43.98%	27.99%	100.00%	80.32%	23.62%
L-Asn	9.49%	19.47%	21.89%	12%	14%	10%	63.72%	24.47%	25.25%	4.79%	6.12%	8.20%	–	–	–	–	–	–	–	–

The next lines start with the values.

P2 Position Substrate Activity for TMPRSS2 (percent substrate cleavage/proteolysis) (TMPRSS2; [1])	P3 Position Various Amino Acids Substrate Activity, TMPRSS2 (percent substrate cleavage/proteolysis) (TMPRSS2)	P4 Position Various Amino Acids Substrate Activity, TMPRSS2 (percent substrate proteolysis/cleavage) (TMPRSS2; [2])	P2 Position Substrate Activity for matriptase (percent substrate cleavage/proteolysis) (matriptase; [3])	P3 Position Various Amino Acids Substrate Activity, matriptase (percent substrate cleavage/proteolysis) (matriptase)	P4 Position Various Amino Acids Substrate Activity, matriptase (percent substrate proteolysis/cleavage) (matriptase)	P2 Position Substrate Activity for hepsin (percent substrate cleavage/proteolysis) (hepsin; [3])	P3 Position Various Amino Acids Substrate Activity, hepsin (percent substrate cleavage/proteolysis) (hepsin)	P4 Position Various Amino Acids Substrate Activity, hepsin (percent substrate proteolysis/cleavage) (hepsin)	P2 Position Substrate Activity for HGFA (percent substrate cleavage/proteolysis) (HGFA; [3])	P3 Position Various Amino Acids Substrate Activity, HGFA (percent substrate cleavage/proteolysis) (HGFA)	P4 Position Various Amino Acids Substrate Activity, HGFA (percent substrate proteolysis/cleavage) (HGFA)	P3 Position Substrate Activity for TMPRSS2 (percent substrate cleavage/proteolysis) (TMPRSS2; [1])	P3 Position Substrate Activity for matriptase (percent substrate cleavage/proteolysis) (matriptase; [3])	P3 Position Substrate Activity for hepsin (percent substrate cleavage/proteolysis) (hepsin; [3])	P3 Position Substrate Activity for HGFA (percent substrate cleavage/proteolysis) (HGFA; [3])	P4 Position Substrate Activity for TMPRSS2 (percent substrate cleavage/proteolysis) (TMPRSS2; residue fixed at P4 position of substrate library, best recognized amino acid set to 100%)	P4 Position Substrate Activity for matriptase (percent substrate cleavage/proteolysis) (matriptase; [4])	P4 Position Substrate Activity for hepsin (percent substrate cleavage/proteolysis) (hepsin; [4])	P4 Position Substrate Activity for HGFA (percent substrate cleavage/proteolysis) (HGFA; [4])	Substance
0.00%	0.00%	31.72%	0%	2%	10%	11.55%	54.84%	21.84%	0.00%	10.86%	7.94%	–	–	–	–	–	–	–	–	D-Ser
25.14%	31.84%	26.30%	28%	34%	31%	17.85%	28.07%	41.30%	2.37%	8.97%	6.68%	–	–	–	–	–	–	–	–	L-Ala
9.72%	25.70%	7.77%	1%	2%	1%	0.33%	3.89%	0.22%	1.21%	2.81%	1.90%	–	–	–	–	–	–	–	–	L-Asp
